Reference: patent US20120108538A1, “SULFATED POLYSACCHARIDES HAVING ANTIPLASMODIAL ACTIVITY AND METHODS AND PRODUCTS FOR IDENTIFYING ANTIPLASMODIAL ACTIVITY” (priority 2009, published 2012)

Key:
[1] = system: P. falciparum 3D7 parasites; experiment: Time course of schizont rupture and merozoite invasion/ring formation; assay type: cell-based, Plasmodium falciparum; conditions: 100 μg/mL
Procedure: 50 μL of synchronous 3D7 parasites at high parasitemia (5-10%), at approximately 32 hrs trophozoites were incubated as for GIAs with or without inhibitors (100 μg/mL). From approximately 44-48 hr schizonts parasite samples were collected, every 3 hrs for 15 hrs. Cells were stained and analysed as for GIAs to evaluate parasitemia and parasite stage.
To define the mechanism of action of heparin and heparin-like molecules Applicant performed time-course studies of schizont rupture, merozoite invasion and intra-erythrocytic development of P. falciparum in the presence of heparin. Parasite stages were evaluated using flow-cytometry, differentiating between late stage trophozoites and schizont versus ring stage parasites with ethidium bromide staining. […] No inhibition of infra-erythrocytic growth was observed (data not shown).

[2] = system: P. falciparum merozoite invasion of erythrocytes; experiment: Live video microscopy of merozoite invasion; assay type: cell-based, Plasmodium falciparum; conditions: 100 μg/mL; 4529 seconds filming, 15 rupture events
Procedure: Parasites cultures of 5-10% late stage schizonts were filmed with video microscopy in normal culture media, 37° C. 6% CO2 with humidification with or without 100 μg/mL of inhibitory compounds added to cultures as described previously. 35. Gilson P R, Crabb B S (2009) Morphology and kinetics of the three distinct phases of red blood cell invasion by Plasmodium falciparum merozoites. Int J Parasitol 39: 91-96.
A mechanism of action of heparin was next determined using live time-lapse microscopy. In control parasite cultures, schizont rupture and step-wise invasion of erythrocytes by merozoites was readily observed (FIG. 7C). During merozoite invasion of erythrocytes, Applicant observed initial contact with erythrocyte surface resulting in brief deformation of erythrocytes, merozoite reorientation, mechanical invasion resulting in erythrocyte deformation, and erythrocyte re-shaping upon complete invasion, as reported previously. […] Initial contact of merozoites with the erythrocyte surface was also observed; however, contact between erythrocytes and merozoites was not sustained, and merozoites dissociated after various lengths of time (FIG. 7D). No successful invasion events were observed; additionally, reorientation of merozoites and deformation of erythrocytes were not clearly seen, although the observation of merozoite reorientation is limited due to microscope resolution. […]

[3] = system: purified P. falciparum merozoites invading RBCs; experiment: Invasion inhibition assay (IIA) using purified merozoites; assay type: cell-based, Plasmodium falciparum
Procedure: Purified merozoites were mixed with uninfected RBCs and cultured using standard conditions in 96 well U-bottom plates at a final volume of 50 μl or 100 μl per well. Specific assay conditions were varied for different test conditions, as described in the Results section of the manuscript. Assays were typically performed under static conditions. Some assays were also performed with agitation of merozoite:RBC suspensions.
To test the activity of inhibitory compounds on invasion (Supporting Information Table 3), E64 treated schizonts were resuspended and filtered in culture medium without human serum. A typical merozoite invasion inhibition assay consisted of filtered merozoites (40 ul) added to RBC suspension (5 ul at […]; final concentration 1% hematocrit) and inhibitory compounds (5 ul at 10-times the final concentration required) in 96-well plates. Merozoite:RBCs suspensions containing inhibitors were incubated for one hour and then washed twice with culture medium to remove inhibitors, then resuspended in fresh culture media and incubated and analysed as for standard merozoite invasion assays. A number of compounds were also tested for inhibition of schizont rupture by incubating late stage schizonts (1-2% parasitaemia, 1% haematocrit in 50 ul) with a 1 in 10 dilution of compounds and monitoring the course of schizont rupture at 3 time points over an 8 hour period by flow cytometry.

MSP1-42 = MSP1-42 (Plasmodium falciparum, UniProt Q8I0U8); experiment: Heparin-BSA binding assay; parameters: a C-terminal 42kDa (MSP1-42) fragment; made in house; host or cells: E. coli; species or system P. falciparum; conditions: soluble inhibitor
MSP1-42, sequence (Q8I0U8 1327-1699): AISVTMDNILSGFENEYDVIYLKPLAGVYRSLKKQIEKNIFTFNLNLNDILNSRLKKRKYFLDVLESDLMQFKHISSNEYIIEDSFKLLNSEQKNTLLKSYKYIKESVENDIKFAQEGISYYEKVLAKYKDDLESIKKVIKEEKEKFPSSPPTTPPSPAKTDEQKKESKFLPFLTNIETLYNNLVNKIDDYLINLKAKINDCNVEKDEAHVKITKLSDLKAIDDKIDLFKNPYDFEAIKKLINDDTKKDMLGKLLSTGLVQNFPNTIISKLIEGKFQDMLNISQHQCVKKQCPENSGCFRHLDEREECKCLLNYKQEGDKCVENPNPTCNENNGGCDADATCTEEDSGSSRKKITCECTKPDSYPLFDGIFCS
Procedure: Recombinant merozoite antigens were coated (1 μg/mL) onto 96 well plates (Nunc Maxisorb) in HT-PBS overnight at 4° C. Plates were washed and blocked with 1% casein, 1 hr, room temperature. Plates were incubated with heparin-BSA conjugate with soluble inhibitors and detected with anti-BSA (rabbit) (Sigma-Aldrich) antibodies and anti-rabbit -HRP. Detection was performed with 2,2′-azino-bis(3-ethylbenzthiazoline-6-sulphonic acid) (Sigma-Aldrich) monitored for colour change and measured for absorbance at 405 nm. All incubations were performed in HT-PBS 0.1% casein 0:05% Tween20, 1 hr at room temperature. Plates were washed 3 times HT-PBS 0.05% Tween20 between incubations.

Heparin
rates of merozoite invasion and ring formation [1]: very low | schizont rupture compared to control [1]: some delay, but not complete inhibition | inhibition of intra-erythrocytic growth ([1]; data not shown): No inhibition | successful invasion events observed [2]: no successful invasion observed | inhibition of merozoite invasion in IIA [3]: effectively inhibited merozoite invasion | inhibition of heparin-BSA binding to recombinant MSP1-42 (MSP1-42): inhibited in a concentration-dependent manner
